Measurements: PubChem BioAssay AID1259407 (Chemical Carcinogenesis Research Information System (CCRIS), 2018)
Activity calls are given as the source filed them. How the calls were made is not given here.

System: CCRIS mutagenicity, Ames/micronucleus/aberration tests
Assay: CCRIS mutagenicity studies
[1] = Test System: AMES SALMONELLA TYPHIMURIUM, Strain/Indicator: TA98, Metabolic Activation: NONE, Method: PREINCUBATION
[2] = Test System: AMES SALMONELLA TYPHIMURIUM, Strain/Indicator: TA100, Metabolic Activation: NONE, Method: PREINCUBATION
[3] = Test System: AMES SALMONELLA TYPHIMURIUM, Strain/Indicator: TA100, Metabolic Activation: RAT, LIVER, S-9, AROCLOR 1254, Method: PREINCUBATION
[4] = Test System: AMES SALMONELLA TYPHIMURIUM, Strain/Indicator: TA102, Metabolic Activation: NONE, Method: PREINCUBATION

N#Cc1cc(I)c(O)c([N+](=O)[O-])c1 was tested, and the mutagenic call (End Point: In vivo chromosomal aberrations, Test System: Bone marrow cells, Species: Mouse, Strain/Sex: Swiss/Male, Route: Intraperitoneal) was “active; positive (structural changes)”, the mutagenic call (Test System: AMES SALMONELLA TYPHIMURIUM, Strain/Indicator: TA98, Metabolic Activation: NONE, Method: STANDARD PLATE) was “inactive; negative” and the mutagenic call (Test System: AMES SALMONELLA TYPHIMURIUM, Strain/Indicator: TA98, Metabolic Activation: RAT, LIVER, S-9, KANECHLOR 400, Method: STANDARD PLATE) was “inactive; negative”. For the same compound, the mutagenic call (Test System: AMES SALMONELLA TYPHIMURIUM, Strain/Indicator: TA100, Metabolic Activation: NONE, Method: STANDARD PLATE) was “inactive; negative”, the mutagenic call (Test System: AMES SALMONELLA TYPHIMURIUM, Strain/Indicator: TA100, Metabolic Activation: RAT, LIVER, S-9, KANECHLOR 400, Method: STANDARD PLATE) was “inactive; negative” and the mutagenic call (Test System: AMES SALMONELLA TYPHIMURIUM, Strain/Indicator: TA1535, Metabolic Activation: NONE, Method: STANDARD PLATE) was “inactive; negative”. For the same compound, the mutagenic call (Test System: AMES SALMONELLA TYPHIMURIUM, Strain/Indicator: TA1535, Metabolic Activation: RAT, LIVER, S-9, KANECHLOR 400, Method: STANDARD PLATE) was “inactive; negative”, the mutagenic call (Test System: AMES SALMONELLA TYPHIMURIUM, Strain/Indicator: TA1537, Metabolic Activation: NONE, Method: STANDARD PLATE) was “inactive; negative” and the mutagenic call (Test System: AMES SALMONELLA TYPHIMURIUM, Strain/Indicator: TA1537, Metabolic Activation: RAT, LIVER, S-9, KANECHLOR 400, Method: STANDARD PLATE) was “inactive; negative”. For the same compound, the mutagenic call (Test System: AMES SALMONELLA TYPHIMURIUM, Strain/Indicator: TA1538, Metabolic Activation: RAT, LIVER, S-9, KANECHLOR 400, Method: STANDARD PLATE) was “inactive; negative”.

In the case of Cc1ccc2nc3c4c(ccc3c(CO)c2c1)[C@H](O)[C@@H](O)C=C4, the mutagenic call (Test System: AMES SALMONELLA TYPHIMURIUM, Strain/Indicator: TA100, Metabolic Activation: RAT, LIVER, S-9, AROCLOR 1254, Method: STANDARD PLATE) is reported as “active; positive”.

Cc1nccnc1C was tested, and the mutagenic call [1] was “inactive; negative”, the mutagenic call (Test System: AMES SALMONELLA TYPHIMURIUM, Strain/Indicator: TA98, Metabolic Activation: RAT, LIVER, S-9, AROCLOR 1254, Method: PREINCUBATION) was “inactive; negative” and the mutagenic call [2] was “inactive; negative”. For the same compound, the mutagenic call [3] was “inactive; negative”, the mutagenic call [4] was “inactive; negative” and the mutagenic call (Test System: AMES SALMONELLA TYPHIMURIUM, Strain/Indicator: TA102, Metabolic Activation: RAT, LIVER, S-9, AROCLOR 1254, Method: PREINCUBATION) was “inactive; negative”.

With Clc1ccccc1C(c1ccccc1)C(c1ccccc1)c1ccccc1Cl (stereo unspecified) the mutagenic call (Test System: Mouse lymphoma, Strain/Indicator: L5178Y (tk+/tk-), Metabolic Activation: None, Method: Suspension/plate) was “inactive; negative” and the mutagenic call (Test System: Mouse lymphoma, Strain/Indicator: L5178Y (tk+/tk-), Metabolic Activation: Rat, Liver, S-9, Aroclor 1254, Method: Suspension/plate) was “active; equivocal (previous evaluation positive)”.

With O=C1C=CC(=O)C(Cl)=C1 the mutagenic call [1] was “inactive; negative”, the mutagenic call (Test System: AMES SALMONELLA TYPHIMURIUM, Strain/Indicator: TA98, Metabolic Activation: RAT, LIVER, S-9, PHENOBARBITAL AND 5,6-BENZOFLAVONE, Method: PREINCUBATION) was “inactive; negative” and the mutagenic call [2] was “inactive; negative”. For the same compound, the mutagenic call (Test System: AMES SALMONELLA TYPHIMURIUM, Strain/Indicator: TA100, Metabolic Activation: RAT, LIVER, S-9, PHENOBARBITAL AND 5,6-BENZOFLAVONE, Method: PREINCUBATION) was “inactive; negative”, the mutagenic call [4] was “inactive; negative” and the mutagenic call (Test System: AMES SALMONELLA TYPHIMURIUM, Strain/Indicator: TA102, Metabolic Activation: RAT, LIVER, S-9, PHENOBARBITAL AND 5,6-BENZOFLAVONE, Method: PREINCUBATION) was “inactive; negative”. For the same compound, the mutagenic call (Test System: AMES SALMONELLA TYPHIMURIUM, Strain/Indicator: TA104, Metabolic Activation: NONE, Method: PREINCUBATION) was “inactive; negative”, the mutagenic call (Test System: AMES SALMONELLA TYPHIMURIUM, Strain/Indicator: TA104, Metabolic Activation: RAT, LIVER, S-9, PHENOBARBITAL AND 5,6-BENZOFLAVONE, Method: PREINCUBATION) was “inactive; negative” and the mutagenic call (Test System: AMES SALMONELLA TYPHIMURIUM, Strain/Indicator: TA2637, Metabolic Activation: NONE, Method: PREINCUBATION) was “inactive; negative”. For the same compound, the mutagenic call (Test System: AMES SALMONELLA TYPHIMURIUM, Strain/Indicator: TA2637, Metabolic Activation: RAT, LIVER, S-9, PHENOBARBITAL AND 5,6-BENZOFLAVONE, Method: PREINCUBATION) was “inactive; negative”.

[Cl][Sb]([Cl])[Cl] was tested, and the mutagenic call [1] was “inactive; negative”, the mutagenic call (Test System: AMES SALMONELLA TYPHIMURIUM, Strain/Indicator: TA98, Metabolic Activation: RAT, LIVER, S-9 (10%), Method: PREINCUBATION) was “inactive; negative” and the mutagenic call [2] was “inactive; negative”. For the same compound, the mutagenic call (Test System: AMES SALMONELLA TYPHIMURIUM, Strain/Indicator: TA100, Metabolic Activation: RAT, LIVER, S-9 (10%), Method: PREINCUBATION) was “inactive; negative”.

With O=[N+]([O-])c1ccccc1CBr the mutagenic call [1] was “inactive; negative”, the mutagenic call [2] was “inactive; negative” and the mutagenic call [3] was “inactive; negative”.
